Reference: patent US9540691B2, “Assays and methods for selecting a treatment regimen for a subject with depression” (THE GENERAL HOSPITAL CORPORATION, priority 2011, dated 2017)
Read-outs that look alike come from different tables or passages of the source.

System: MDD patients carrying the indicated conditions
Details: with SSRI
Experimental: Folate levels are classified as either low (<=2.5 ng/ml) or normal; and homocysteine levels as either normal or elevated (>=[…]). The presence or absence of at least one […] allele for the MTHFR gene are entered as a dichotomous variable (present or absent). […] Using folate as an example predicator, the presence or absence of a low serum-folate level along with treatment assignment can be entered in a 2×2, factorial ANOVA, using depression improvement scores (baseline minus endpoint HAM-D-17 scores) as the dependant variable. […] Similar analyses (i.e. separate 2×2 ANOVA's) can be performed substituting the presence of low folate levels for the presence of other predictors as described herein. Similarly, the effect of other predictors can be indicated by the interaction term representing the potential modulating influence of those variables.
Particularly, specific genetic and biomarkers that were assessed include the following: • (a) BMI calculation of at least about 30 kg/m^2; • (b) an expression ratio of SAM/SAH smaller than 2.8 (e.g., 2.71) as measured in a plasma sample; • (c) a level of 4-HNE no less than 3.28 μg/mL (as measured in a plasma sample); • (d) presence of rare variants CT or TT at position 677 of SEQ ID NO: 1 corresponding to a portion of a genomic nucleic acid sequence of methylenetetrahydrofolate reductase (MTHFR) (abbreviated as “MTHFR 677” below); • (e) presence of rare variants AG or GG at position 2756 of SEQ ID NO: 2 corresponding to a portion of genomic nucleic acid sequence of methionine synthase (MTR) (abbreviated as “MTR 2756” below); and • (f) presence of rare variants AG or GG at position 66 of SEQ ID NO: 3 corresponding to a portion of genomic nucleic acid sequence of methionine synthase reductase (MTRR) (abbreviated as “MTRR 66” below).
The efficacy effect is determined by measuring the mean change in the HAMD-17 score and HAMD-28 score by the end of Phase I and Phase II, as compared to the baseline.

[1] = Phase II, interaction of BMI with the treatment
[2] = Phase II, interaction of HNE-his with the treatment
[3] = Phase II, interaction of SAM/SAH with the treatment
[4] = Pooled phases, 25 =< BMI < 30 kg/m^2 (18, 10)
[5] = Pooled phases, BMI < 25 (14, 7)

CN1c2c(nc(N)[nH]c2=O)NC[C@@H]1CNc1ccc(C(=O)N[C@@H](CCC(=O)O)C(=O)O)cc1 [6(S)-5-MTHF, 6(S)-5-methyltetrahydrofolate]
Effect, change in HAMD-28 score (Phase II, MTR 2756 AA and MTRR 66 AA): −8.000 | Effect, change in HAMD-17 score (Phase II, MTR 2756 AA and SAM/SAH >= median (24,12)): 1.971 | Effect, change in HAMD-28 score (Phase II, MTR 2756 AA and SAM/SAH >= median): 2.000 | Effect, change in HAMD-28 score (Phase II, MTR 2756 AA): −0.446 | Effect, change in HAMD-17 score (Phase II, MTR 2756 AG or GG and BMI >= 30 kg/m^2 (10,5)): −12.167 | Effect, change in HAMD-28 score (Phase II, MTR 2756 AG or GG and BMI >= 30 kg/m^2): −13.000 | Effect, change in HAMD-17 score (Phase II, MTR 2756 AG or GG and HNE-His >= median (13,7)): −8.417 | Effect, change in HAMD-28 score (Phase II, MTR 2756 AG or GG and HNE-His >= median = 3.28 (plasma sample)): −9.500 | Effect, change in HAMD-17 score (Phase II, MTR 2756 AG or GG and MTRR 66 AG or GG (15,7)): −4.667 | Effect, change in HAMD-17 score (Phase II, MTR 2756 AG or GG and MTRR 66 AG or GG and BMI >= 30 kg/m^2 (8,4)): −11.000 | Effect, change in HAMD-28 score (Phase II, MTR 2756 AG or GG and MTRR 66 AG or GG and BMI >= 30 kg/m^2): −12.000 | Effect, change in HAMD-17 score (Phase II, MTR 2756 AG or GG and MTRR 66 AG or GG and HNE-His >= median (10,4)): −11.000 | Effect, change in HAMD-28 score (Phase II, MTR 2756 AG or GG and MTRR 66 AG or GG and HNE-His >= median): −12.000 | Effect, change in HAMD-17 score (Phase II, MTR 2756 AG or GG and MTRR 66 AG or GG and SAM/SAH < median (8,3)): −6.500 | Effect, change in HAMD-28 score (Phase II, MTR 2756 AG or GG and MTRR 66 AG or GG and SAM/SAH < median = 2.71 (plasma sample)): −10.500 | Effect, change in HAMD-28 score (Phase II, MTR 2756 AG or GG and MTRR 66 AG or GG): −6.583 | Effect, change in HAMD-17 score (Phase II, MTR 2756 AG or GG and SAM/SAH < median (10,4)): −2.500 | Effect, change in HAMD-28 score (Phase II, MTR 2756 AG or GG and SAM/SAH < median = 2.71 (plasma sample)): −7.500 | Effect, change in HAMD-17 score (Phase II, MTR 2756 AG/GG (20,11)): −3.600 | Effect, change in HAMD-28 score (Phase II, MTR 2756 AG/GG): −5.300 | Effect, change in HAMD-17 score (Phase II, MTRR 66 AA and HNE-His < median (8,5)): −1.667 | Effect, change in HAMD-28 score (Phase II, MTRR 66 AA and HNE-His < median = 3.28 (plasma sample)): −2.000 | Effect, change in HAMD-17 score (Phase II, MTRR 66 AA and SAM/SAH >= median (9,6)): −3.000 | Effect, change in HAMD-28 score (Phase II, MTRR 66 AA and SAM/SAH >= median): −3.333 | Effect, change in HAMD-17 score (Phase II, MTRR 66 AG or GG and HNE-His >= median (24,11)): −3.500 | Effect, change in HAMD-28 score (Phase II, MTRR 66 AG or GG and HNE-His >= median): −4.071 | Effect, change in HAMD-17 score (Phase II, MTRR 66 AG or GG and SAM/SAH < median (24,10)): −6.190 | Effect, change in HAMD-28 score (Phase II, MTRR 66 AG or GG and SAM/SAH < median = 2.71 (plasma sample)): −7.381 | Effect, change in HAMD-17 score (Phase II, SAM/SAH < median and HNE-His >= median (19,7)): −9.000 | Effect, change in HAMD-28 score (Phase II, SAM/SAH < median and HNE-His >= median): −12.000 | Effect, change in HAMD-17 score (Phase II, SAM/SAH >= median and HNE-His < median (18,8)): 4.000 | Effect, change in HAMD-28 score (Phase II, SAM/SAH >= median and HNE-His < median): 4.500 | Effect, change in HAMD-17 score: BMI*treat [1]: 0.113 | Effect, change in HAMD-28 score: BMI*treat [1]: 0.082 | Effect, change in HAMD-17 score: HNE-his*treat [2]: 2.027 | Effect, change in HAMD-28 score: HNE-his*treat [2]: 2.362 | Effect, change in HAMD-17 score: SAM/SAH*treat [3]: 1.483 | Effect, change in HAMD-28 score: SAM/SAH*treat (last line) [3]: 1.806 | Effect, change in HAMD-17 score: baseHAMD-17*treat (Phase II, interaction of base HAMD-17 with the treatment): −0.249 | Effect, change in HAMD-28 score: SAM/SAH*treat (first line under HAMD28) (Phase II, interaction with the treatment): 1.483 | Effect, change in HAMD-17 score [4]: 3.331 | Effect, change in HAMD-28 score [4]: 2.054 | Effect, change in HAMD-17 score [5]: −1.248 | Effect, change in HAMD-28 score [5]: −1.018 | Effect, change in HAMD-17 score (Pooled phases, BMI < 30 kg/m^2 and HNE-His < median (19, 9)): 4.738 | Effect, change in HAMD-28 score (Pooled phases, BMI < 30 kg/m^2 and HNE-His < median): 4.253 | Effect, change in HAMD-17 score (Pooled phases, BMI < 30 kg/m^2 and SAM/SAH >= median (16,8)): 2.583 | Effect, change in HAMD-28 score (Pooled phases, BMI < 30 kg/m^2 and SAM/SAH >= median): 2.906 | Effect, change in HAMD-28 score (Pooled phases, BMI >= 30 kg/m^2 (40,21)): −4.660 | Effect, change in HAMD-17 score (Pooled phases, BMI >= 30 kg/m^2 and HNE-His >= median (23, 11)): −5.420 | Effect, change in HAMD-17 score (Pooled phases, BMI >= 30 kg/m^2 and SAM/SAH < median (21,9)): −7.302 | Effect, change in HAMD-28 score (Pooled phases, BMI >= 30 kg/m^2 and SAM/SAH < median = 2.71 (plasma sample)): −7.572 | Effect, change in HAMD-17 score (Pooled phases, MTHFR 677 CC and BMI < 30 kg/m^2 (17,8)): 1.356 | Effect, change in HAMD-28 score (Pooled phases, MTHFR 677 CC and BMI < 30 kg/m^2): −0.234 | Effect, change in HAMD-17 score (Pooled phases, MTHFR 677 CC and HNE-His < median (20,11)): −1.050 | Effect, change in HAMD-28 score (Pooled phases, MTHFR 677 CC and HNE-His < median = 3.28 (plasma sample)): −1.340
